Columns and labels:
Assay in all cases: KINOMEscan competition binding
Conditions in all cases: compound 10.0 µM
RPS6KA4 KD2 (human) = RPS6KA4 KD2 (human) (UniProt O75676)
STK16 (human) = STK16 (human) (UniProt O75716)
CAMKK1 (human) = CAMKK1 (human) (UniProt Q8N5S9)
DMPK (human) = DMPK (human) (UniProt Q09013)
EPHA1 (human) = EPHA1 (human) (UniProt P21709)
STK33 (human) = STK33 (human) (UniProt Q9BYT3)
STK38 (human) = STK38 (human) (UniProt Q15208)
BMPR2 (human) = BMPR2 (human) (UniProt Q13873)
[1] = system: KIT (human), P10721 [A829P]
EIF2AK2 (human) = EIF2AK2 (human) (UniProt P19525)
BLK (human) = BLK (human) (UniProt P51451)
DAPK3 (human) = DAPK3 (human) (UniProt O43293)
CDKL1 (human) = CDKL1 (human) (UniProt Q00532)
RPS6KA6 KD2 (human) = RPS6KA6 KD2 (human) (UniProt Q9UK32)
CASK (human) = CASK (human) (UniProt O14936)
TSSK1B (human) = TSSK1B (human) (UniProt Q9BXA7)
PRKAA2 (human) = PRKAA2 (human) (UniProt P54646)
PAK6 (human) = PAK6 (human) (UniProt Q9NQU5)
MAP3K6 (human) = MAP3K6 (human) (UniProt O95382)
MAP3K4 (human) = MAP3K4 (human) (UniProt Q9Y6R4)
[2] = system: KIT (human), P10721 [D816H]
[3] = system: RET (human), P07949 [M918T]
CDK9 (human) = CDK9 (human) (UniProt P50750)
[4] = target: JAK3 JH1 catalytic (human) (UniProt P52333)
ACVR1 (human) = ACVR1 (human) (UniProt Q04771)
MYO3A (human) = MYO3A (human) (UniProt Q8NEV4)
STK38L (human) = STK38L (human) (UniProt Q9Y2H1)
CAMK2B (human) = CAMK2B (human) (UniProt Q13554)
BMX (human) = BMX (human) (UniProt P51813)
PRKACB (human) = PRKACB (human) (UniProt P22694)
EIF2AK1 (human) = EIF2AK1 (human) (UniProt Q9BQI3)
CDK3 (human) = CDK3 (human) (UniProt Q00526)
LATS2 (human) = LATS2 (human) (UniProt Q9NRM7)
MAPK12 (human) = MAPK12 (human) (UniProt P53778)
NEK4 (human) = NEK4 (human) (UniProt P51957)
CDC2L2 (human) = CDC2L2 (human) (UniProt Q9UQ88)
PRPF4B (human) = PRPF4B (human) (UniProt Q13523)
[5] = system: EGFR (human), P00533 [L858R]
EPHA2 (human) = EPHA2 (human) (UniProt P29317)
PIK3C2G (human) = PIK3C2G (human) (UniProt O75747)
PRKCQ (human) = PRKCQ (human) (UniProt Q04759)
NTRK3 (human) = NTRK3 (human) (UniProt Q16288)
[6] = system: KIT (human), P10721 [V559D]

Chain of NTRK3 (human) (Q16288 whole entry, looked up): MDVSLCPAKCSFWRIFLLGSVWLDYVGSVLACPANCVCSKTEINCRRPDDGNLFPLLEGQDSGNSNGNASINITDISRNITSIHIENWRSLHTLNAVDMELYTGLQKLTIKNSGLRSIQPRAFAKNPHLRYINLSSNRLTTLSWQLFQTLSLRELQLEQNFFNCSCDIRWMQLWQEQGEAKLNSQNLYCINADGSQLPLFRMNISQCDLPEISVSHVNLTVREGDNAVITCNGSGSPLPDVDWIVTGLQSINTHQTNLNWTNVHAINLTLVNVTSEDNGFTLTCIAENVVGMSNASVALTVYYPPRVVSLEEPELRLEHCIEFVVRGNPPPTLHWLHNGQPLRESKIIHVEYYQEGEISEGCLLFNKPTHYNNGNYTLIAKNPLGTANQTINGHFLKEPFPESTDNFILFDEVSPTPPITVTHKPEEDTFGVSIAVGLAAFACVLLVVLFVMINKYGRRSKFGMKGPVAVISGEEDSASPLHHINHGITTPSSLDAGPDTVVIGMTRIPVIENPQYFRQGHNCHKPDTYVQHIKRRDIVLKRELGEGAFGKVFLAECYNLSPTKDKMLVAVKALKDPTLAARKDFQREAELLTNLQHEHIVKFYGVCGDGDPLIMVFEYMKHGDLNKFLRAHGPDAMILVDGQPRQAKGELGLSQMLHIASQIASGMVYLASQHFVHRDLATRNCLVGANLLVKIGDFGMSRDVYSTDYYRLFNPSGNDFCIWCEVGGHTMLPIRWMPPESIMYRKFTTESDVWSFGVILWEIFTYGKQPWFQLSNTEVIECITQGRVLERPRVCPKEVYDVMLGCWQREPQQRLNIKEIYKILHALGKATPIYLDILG
Chain of PRPF4B (human) (Q13523 whole entry, looked up): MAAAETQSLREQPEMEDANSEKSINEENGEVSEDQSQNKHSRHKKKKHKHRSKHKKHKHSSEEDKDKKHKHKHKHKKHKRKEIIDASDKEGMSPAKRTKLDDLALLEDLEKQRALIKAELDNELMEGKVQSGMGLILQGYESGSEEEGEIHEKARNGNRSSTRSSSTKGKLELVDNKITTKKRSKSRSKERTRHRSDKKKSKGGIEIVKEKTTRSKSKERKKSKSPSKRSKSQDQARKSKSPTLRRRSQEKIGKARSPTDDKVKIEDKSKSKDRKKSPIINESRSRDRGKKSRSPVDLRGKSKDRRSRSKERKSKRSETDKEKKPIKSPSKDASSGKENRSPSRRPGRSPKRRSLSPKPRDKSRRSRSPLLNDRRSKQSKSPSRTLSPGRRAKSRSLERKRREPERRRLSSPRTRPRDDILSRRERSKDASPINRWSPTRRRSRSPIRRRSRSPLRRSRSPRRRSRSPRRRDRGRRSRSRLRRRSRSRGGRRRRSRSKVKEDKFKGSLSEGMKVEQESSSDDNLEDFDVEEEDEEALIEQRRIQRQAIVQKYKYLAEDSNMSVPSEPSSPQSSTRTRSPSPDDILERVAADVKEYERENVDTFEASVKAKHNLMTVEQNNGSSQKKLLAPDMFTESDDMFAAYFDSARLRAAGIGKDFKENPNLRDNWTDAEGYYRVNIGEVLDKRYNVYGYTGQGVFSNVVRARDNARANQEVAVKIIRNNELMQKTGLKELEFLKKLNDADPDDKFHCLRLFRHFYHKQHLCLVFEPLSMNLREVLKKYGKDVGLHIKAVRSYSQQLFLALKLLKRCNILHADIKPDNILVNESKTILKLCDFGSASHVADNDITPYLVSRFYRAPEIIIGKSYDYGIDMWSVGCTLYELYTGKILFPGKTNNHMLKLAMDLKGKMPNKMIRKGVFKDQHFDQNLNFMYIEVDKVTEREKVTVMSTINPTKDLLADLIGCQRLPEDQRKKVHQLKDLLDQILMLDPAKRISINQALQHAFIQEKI
Chain of EPHA2 (human) (P29317 whole entry, looked up): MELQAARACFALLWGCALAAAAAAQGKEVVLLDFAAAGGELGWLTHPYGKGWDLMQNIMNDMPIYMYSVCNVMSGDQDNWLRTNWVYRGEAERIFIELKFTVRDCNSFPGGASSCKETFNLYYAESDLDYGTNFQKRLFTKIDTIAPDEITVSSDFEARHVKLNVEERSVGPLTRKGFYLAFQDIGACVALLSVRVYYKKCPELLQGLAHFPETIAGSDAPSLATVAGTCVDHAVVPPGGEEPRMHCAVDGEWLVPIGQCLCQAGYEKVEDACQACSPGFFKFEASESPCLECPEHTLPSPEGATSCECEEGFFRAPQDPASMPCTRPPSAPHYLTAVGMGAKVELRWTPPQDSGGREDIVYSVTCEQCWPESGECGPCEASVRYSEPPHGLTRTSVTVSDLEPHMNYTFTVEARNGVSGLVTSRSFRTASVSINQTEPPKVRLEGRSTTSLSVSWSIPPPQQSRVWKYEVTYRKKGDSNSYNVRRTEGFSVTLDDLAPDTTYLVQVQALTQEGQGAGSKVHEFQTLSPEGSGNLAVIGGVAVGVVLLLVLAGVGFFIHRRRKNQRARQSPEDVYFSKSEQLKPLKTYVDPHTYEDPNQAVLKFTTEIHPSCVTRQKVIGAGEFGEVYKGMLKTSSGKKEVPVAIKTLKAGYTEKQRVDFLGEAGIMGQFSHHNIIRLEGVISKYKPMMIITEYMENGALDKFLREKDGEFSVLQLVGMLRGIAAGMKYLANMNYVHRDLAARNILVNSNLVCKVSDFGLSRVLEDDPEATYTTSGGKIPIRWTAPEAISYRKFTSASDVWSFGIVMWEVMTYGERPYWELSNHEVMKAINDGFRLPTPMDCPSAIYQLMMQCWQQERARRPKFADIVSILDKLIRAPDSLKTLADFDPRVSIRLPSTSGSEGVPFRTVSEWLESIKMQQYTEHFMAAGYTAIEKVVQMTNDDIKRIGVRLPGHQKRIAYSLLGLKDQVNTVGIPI
Chain of CDK3 (human) (Q00526 whole entry, looked up): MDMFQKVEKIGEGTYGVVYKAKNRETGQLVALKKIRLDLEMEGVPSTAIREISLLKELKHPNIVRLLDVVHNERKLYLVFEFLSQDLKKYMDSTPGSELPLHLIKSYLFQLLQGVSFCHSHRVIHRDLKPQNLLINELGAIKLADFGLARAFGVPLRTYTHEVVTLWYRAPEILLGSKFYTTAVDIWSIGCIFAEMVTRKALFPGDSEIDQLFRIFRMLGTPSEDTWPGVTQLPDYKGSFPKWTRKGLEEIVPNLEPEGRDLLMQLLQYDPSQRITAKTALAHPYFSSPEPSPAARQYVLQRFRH
Chain of PRKCQ (human) (Q04759 whole entry, looked up): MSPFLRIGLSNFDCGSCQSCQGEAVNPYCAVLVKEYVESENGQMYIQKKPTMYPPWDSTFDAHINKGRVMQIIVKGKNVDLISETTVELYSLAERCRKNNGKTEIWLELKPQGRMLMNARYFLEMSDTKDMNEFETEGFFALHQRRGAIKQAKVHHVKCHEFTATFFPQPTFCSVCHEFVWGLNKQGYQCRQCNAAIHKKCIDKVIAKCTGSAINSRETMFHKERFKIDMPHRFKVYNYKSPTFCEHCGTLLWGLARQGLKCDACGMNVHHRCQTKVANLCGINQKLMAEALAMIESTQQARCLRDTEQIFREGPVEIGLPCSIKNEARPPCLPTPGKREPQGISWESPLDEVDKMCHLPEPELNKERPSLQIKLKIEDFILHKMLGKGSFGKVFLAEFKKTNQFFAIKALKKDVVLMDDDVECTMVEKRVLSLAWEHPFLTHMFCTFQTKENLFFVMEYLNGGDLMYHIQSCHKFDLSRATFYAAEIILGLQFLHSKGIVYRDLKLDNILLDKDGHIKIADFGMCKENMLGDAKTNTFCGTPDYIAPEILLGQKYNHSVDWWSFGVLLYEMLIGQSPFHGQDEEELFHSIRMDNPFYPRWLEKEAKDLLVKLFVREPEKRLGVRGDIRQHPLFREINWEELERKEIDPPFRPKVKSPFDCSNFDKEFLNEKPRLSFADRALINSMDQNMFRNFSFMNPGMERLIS
Chain of RPS6KA4 KD2 (human) (O75676 whole entry, looked up): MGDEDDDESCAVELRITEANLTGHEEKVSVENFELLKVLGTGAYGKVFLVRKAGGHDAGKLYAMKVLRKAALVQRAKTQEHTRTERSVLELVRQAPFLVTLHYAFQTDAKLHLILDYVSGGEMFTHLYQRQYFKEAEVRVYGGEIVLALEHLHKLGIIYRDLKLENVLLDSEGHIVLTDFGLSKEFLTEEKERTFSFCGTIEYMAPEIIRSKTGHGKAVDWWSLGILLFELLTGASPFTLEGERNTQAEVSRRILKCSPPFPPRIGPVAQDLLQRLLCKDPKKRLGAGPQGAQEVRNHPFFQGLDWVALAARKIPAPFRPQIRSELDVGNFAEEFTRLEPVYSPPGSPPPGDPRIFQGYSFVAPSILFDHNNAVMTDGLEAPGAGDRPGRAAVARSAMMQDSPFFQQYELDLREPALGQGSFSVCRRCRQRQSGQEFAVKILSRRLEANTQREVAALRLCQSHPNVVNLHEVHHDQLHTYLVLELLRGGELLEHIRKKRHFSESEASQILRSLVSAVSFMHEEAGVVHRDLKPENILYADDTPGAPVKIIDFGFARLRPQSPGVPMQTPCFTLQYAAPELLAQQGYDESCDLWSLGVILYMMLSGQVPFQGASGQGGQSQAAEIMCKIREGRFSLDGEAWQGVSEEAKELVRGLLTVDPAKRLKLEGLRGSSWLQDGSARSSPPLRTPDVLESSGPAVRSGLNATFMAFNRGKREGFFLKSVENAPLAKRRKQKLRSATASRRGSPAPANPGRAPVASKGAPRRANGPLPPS
Chain of TSSK1B (human) (Q9BXA7 whole entry, looked up): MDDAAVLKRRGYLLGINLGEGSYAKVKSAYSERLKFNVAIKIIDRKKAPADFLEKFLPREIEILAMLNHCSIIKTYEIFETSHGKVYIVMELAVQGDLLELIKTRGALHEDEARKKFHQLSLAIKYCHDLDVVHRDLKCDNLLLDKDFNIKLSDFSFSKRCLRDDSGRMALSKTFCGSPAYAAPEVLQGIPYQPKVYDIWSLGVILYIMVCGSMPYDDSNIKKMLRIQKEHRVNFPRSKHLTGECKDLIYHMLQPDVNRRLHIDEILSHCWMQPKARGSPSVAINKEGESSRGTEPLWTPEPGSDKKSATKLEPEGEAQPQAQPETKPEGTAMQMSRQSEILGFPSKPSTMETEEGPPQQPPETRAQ

Cc1ccc(NC(=O)c2ccc(NC(=O)/C=C/CN(C)C)cc2)cc1Nc1nccc(-c2cccnc2)n1
kinase still bound, per cent of control (RPS6KA4 KD2 (human)): 64% | kinase still bound, per cent of control (STK16 (human)): 34% | kinase still bound, per cent of control (CAMKK1 (human)): 99% | kinase still bound, per cent of control (DMPK (human)): 100% | kinase still bound, per cent of control (EPHA1 (human)): 91% | kinase still bound, per cent of control (STK33 (human)): 97% | kinase still bound, per cent of control (STK38 (human)): 80% | kinase still bound, per cent of control (BMPR2 (human)): 86% | kinase still bound, per cent of control [1]: 17% | kinase still bound, per cent of control (EIF2AK2 (human)): 100% | kinase still bound, per cent of control (BLK (human)): 60% | kinase still bound, per cent of control (DAPK3 (human)): 75% | kinase still bound, per cent of control (CDKL1 (human)): 100% | kinase still bound, per cent of control (RPS6KA6 KD2 (human)): 67% | kinase still bound, per cent of control (CASK (human)): 79% | kinase still bound, per cent of control (TSSK1B (human)): 100% | kinase still bound, per cent of control (PRKAA2 (human)): 56% | kinase still bound, per cent of control (PAK6 (human)): 45% | kinase still bound, per cent of control (MAP3K6 (human)): 100% | kinase still bound, per cent of control (MAP3K4 (human)): 100% | kinase still bound, per cent of control [2]: 29% | kinase still bound, per cent of control [3]: 81% | kinase still bound, per cent of control (CDK9 (human)): 100% | kinase still bound, per cent of control [4]: 100% | kinase still bound, per cent of control (ACVR1 (human)): 100% | kinase still bound, per cent of control (MYO3A (human)): 100% | kinase still bound, per cent of control (STK38L (human)): 100% | kinase still bound, per cent of control (CAMK2B (human)): 100% | kinase still bound, per cent of control (BMX (human)): 100% | kinase still bound, per cent of control (PRKACB (human)): 100% | kinase still bound, per cent of control (EIF2AK1 (human)): 94% | kinase still bound, per cent of control (CDK3 (human)): 100% | kinase still bound, per cent of control (LATS2 (human)): 100% | kinase still bound, per cent of control (MAPK12 (human)): 94% | kinase still bound, per cent of control (NEK4 (human)): 100% | kinase still bound, per cent of control (CDC2L2 (human)): 100% | kinase still bound, per cent of control (PRPF4B (human)): 100% | kinase still bound, per cent of control [5]: 57% | kinase still bound, per cent of control (EPHA2 (human)): 90% | kinase still bound, per cent of control (PIK3C2G (human)): 100% | kinase still bound, per cent of control (PRKCQ (human)): 100% | kinase still bound, per cent of control (NTRK3 (human)): 82% | kinase still bound, per cent of control [6]: 0%

— the kinase profiling compilation of Christmann-Franck et al. (2016)
